# Assay results as given in patent US12275731B2, “Azaindole inhibitors of wild-type and mutant forms of LRRK2” (DANA-FARBER CANCER INSTITUTE, INC., priority 2018, dated 2025).
# Like-named read-outs stand apart in the source and are kept apart here.
# Legend:
# [1] = target: LRRK2(G2019S) (Homo sapiens, UniProt Q5S007, G2019S); experiment: LRRK2 G2019S kinase inhibition assay (ADP-Glo); type: biochemical; parameters: purchased SignalChem L10-12GG
# Experimental: (§1) IC50 experiments were performed for inventive compounds. An exemplary kit to perform this assay includes the Adapta™ Screening Protocol and Assay Conditions by Invitrogen™ (Fisher Scientific™, Catalog No. PV5099).
# (§2) All LRRK2 kinase inhibition assays were conducted by using Promega ADP-Glo™ Kinase assay systems (Catalog number; V4475). Inhibitors were tested with 12 concentrations over a 5-fold serial dilution series (50 μM, 10 μM, 2 μM, 400 nM, 80 nM, 16 nM, 3.2 nM, […]) and PF06447475 as positive control. For the LRRK2 wild type (WT) enzyme assay, each inhibitor was mixed with 0.2 μg/μL of substrate (LRRKtide, SignalChem, Richmond, BC, Canada), […] (Invitrogen™, Carlsbad, CA), 24 ng of LRRK2 WT enzyme (Thermo Fisher Scientific, PR8604B) in 384-well plate. For LRRK G2019S, each compound was mixed with 0.2 μg/μL of substrate, […], 16 ng of LRRK2 G2019S enzyme (SignalChem, L10-12GG). All samples were diluted with kinase reaction buffer (40 mmol/L TrisHCl, 10 mmol/L MgCl2, and 0.1 μg/μL BSA (bovine serum albumin)). After 2 hours at 25° C., ADP-Glo™ (Promega, Madison, WI) reagent was added and the samples were incubated at rt for 40 min. Finally, Kinase Detection Reagent was added and the resulting mixtures were allowed to react at rt for 10 min. Luminescence signals were detected using Synergy™ Neo2 microplate reader (Bio-Tek). Compound inhibition curve was fitted using Graphpad Prism 8.0 software.
# [2] = target: T1, LRRK2 WT enzyme (Homo sapiens, UniProt Q5S007); experiment: LRRK2 wild type kinase inhibition assay (ADP-Glo); type: biochemical
# T1 construct: purchased Thermo Fisher Scientific PR8604B
# Experimental: as §1, §2
# [3] = Table 2, class symbols, read-out: Enzyme activity against LRRK2 G2019S (IC50)
# [4] = Table 2, class symbols, read-out: Enzyme activity against LRRK2 WT (IC50)
# [5] = Table 1, read-out: IC50 (nM) LRRK2 G2019S
# [6] = Table 1, read-out: IC50 (nM) LRRK2 wt
# T1 sequence (Q5S007 970-2527 limits assumed): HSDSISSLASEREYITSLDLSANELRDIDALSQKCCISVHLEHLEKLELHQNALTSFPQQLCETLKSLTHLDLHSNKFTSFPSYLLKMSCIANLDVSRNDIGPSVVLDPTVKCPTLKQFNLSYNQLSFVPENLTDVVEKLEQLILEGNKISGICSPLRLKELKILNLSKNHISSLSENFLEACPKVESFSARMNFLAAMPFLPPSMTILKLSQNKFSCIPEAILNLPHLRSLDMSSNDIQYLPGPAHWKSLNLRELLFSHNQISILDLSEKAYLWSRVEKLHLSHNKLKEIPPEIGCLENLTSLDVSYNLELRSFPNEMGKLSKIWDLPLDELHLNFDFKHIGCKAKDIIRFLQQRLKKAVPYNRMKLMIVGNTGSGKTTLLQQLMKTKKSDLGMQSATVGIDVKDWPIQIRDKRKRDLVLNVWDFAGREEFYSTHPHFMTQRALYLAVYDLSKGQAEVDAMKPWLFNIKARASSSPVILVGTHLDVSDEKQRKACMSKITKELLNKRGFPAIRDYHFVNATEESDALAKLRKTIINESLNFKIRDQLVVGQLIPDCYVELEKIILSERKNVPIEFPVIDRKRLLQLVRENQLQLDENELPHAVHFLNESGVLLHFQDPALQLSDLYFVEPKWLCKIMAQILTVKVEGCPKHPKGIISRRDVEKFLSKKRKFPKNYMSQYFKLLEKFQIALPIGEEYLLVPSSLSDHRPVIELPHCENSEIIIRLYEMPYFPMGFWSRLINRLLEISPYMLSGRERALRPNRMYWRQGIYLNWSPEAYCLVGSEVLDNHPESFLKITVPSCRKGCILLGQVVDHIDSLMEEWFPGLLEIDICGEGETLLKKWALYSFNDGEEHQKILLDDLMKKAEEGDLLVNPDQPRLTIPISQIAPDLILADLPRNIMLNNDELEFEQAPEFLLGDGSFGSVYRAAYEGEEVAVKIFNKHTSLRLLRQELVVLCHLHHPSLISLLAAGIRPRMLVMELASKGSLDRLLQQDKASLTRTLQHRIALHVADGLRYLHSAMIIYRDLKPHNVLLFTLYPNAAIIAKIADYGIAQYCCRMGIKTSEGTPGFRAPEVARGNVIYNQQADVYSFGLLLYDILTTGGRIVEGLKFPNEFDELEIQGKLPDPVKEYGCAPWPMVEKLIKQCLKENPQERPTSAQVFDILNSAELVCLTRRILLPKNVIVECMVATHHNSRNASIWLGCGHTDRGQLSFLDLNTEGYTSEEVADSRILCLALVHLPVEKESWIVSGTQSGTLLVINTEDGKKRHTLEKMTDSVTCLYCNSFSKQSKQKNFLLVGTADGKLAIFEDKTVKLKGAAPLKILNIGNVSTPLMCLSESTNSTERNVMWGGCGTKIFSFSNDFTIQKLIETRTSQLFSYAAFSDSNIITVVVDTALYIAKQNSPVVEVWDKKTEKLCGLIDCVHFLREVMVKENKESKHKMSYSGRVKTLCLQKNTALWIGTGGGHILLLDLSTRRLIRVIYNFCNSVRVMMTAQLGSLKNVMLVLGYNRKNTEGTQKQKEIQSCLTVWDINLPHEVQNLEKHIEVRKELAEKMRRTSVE
# Chain of LRRK2(G2019S) (Q5S007 970-2527 G2019S limits assumed): as the sequence (Q5S007 970-2527 limits assumed) above, with G1050S counted along it
SMILES,"IC50 [1, 3]","IC50 [2, 4]","IC50 [1, 5]","IC50 [2, 6]"
"F[C@H]1CN(C2COC2)CC[C@@H]1n1cc(-c2cnc3[nH]ccc3c2NC2CCCC2)cn1 [Compound 31, N-cyclopentyl-5-(1-((3S,4S)-3-fluoro-1-(oxetan-3-yl)piperidin-4-yl)-1H-pyrazol-4-yl)-1H-pyrrolo[2,3-b]pyridin-4-amine]",10 to 100 nM,10 to 100 nM,,
"CCc1cc(-c2cnc3[nH]cc(Cl)c3c2NC(C)C)nn1C [Compound 10, 3-chloro-5-(5-ethyl-1-methyl-1H-pyrazol-3-yl)-N-isopropyl-1H-pyrrolo[2,3-b]pyridin-4-amine]",,,523 nM,259 nM
"CC(=O)N1CC[C@H](n2cc(-c3cnc4[nH]ccc4c3NC3CCCC3)cn2)[C@@H](F)C1 [Compound 38, 1-((3S,4S)-4-(4-(4-(cyclopentylamino)-1H-pyrrolo[2,3-b]pyridin-5-yl)-1H-pyrazol-1-yl)-3-fluoropiperidin-1-yl)ethan-1-one]",10 to 100 nM,10 to 100 nM,,
"CNc1c(-c2ccn(C)n2)cnc2[nH]cc(Cl)c12 [Compound 11, 3-chloro-N-methyl-5-(1-methyl-1H-pyrazol-3-yl)-1H-pyrrolo[2,3-b]pyridin-4-amine]",,,30.9 nM,8.4 nM
"CCNc1c(-c2ccc(C(=O)N3CCOCC3)cc2)cnc2[nH]cc(Cl)c12 [Compound 91, (4-(3-chloro-4-(ethylamino)-1H-pyrrolo[2,3-b]pyridin-5-yl)phenyl)(morpholino)methanone]",10 to 100 nM,10 to 100 nM,,
"CNc1c(-c2c3cc(OC)ccc3nn2C)cnc2[nH]cc(Cl)c12 [Compound 16, 3-chloro-5-(5-methoxy-2-methyl-2H-indazol-3-yl)-N-methyl-1H-pyrrolo[2,3-b]pyridin-4-amine]",,,> 10000 nM,6230 nM
"CNc1c(-c2ccc(C(=O)N3CCOCC3)cc2)cnc2[nH]cc(Cl)c12 [Compound 90, (4-(3-chloro-4-(methylamino)-1H-pyrrolo[2,3-b]pyridin-5-yl)phenyl)(morpholino)methanone]",< 10 nM,< 10 nM,,
"CNc1c(-c2cnn(C3CCN(C)CC3)c2)cnc2[nH]cc(Cl)c12 [Compound 5, 3-chloro-N-methyl-5-(1-(1-methylpiperidin-4-yl)-1H-pyrazol-4-yl)-1H-pyrrolo[2,3-b]pyridin-4-amine]",,,20 nM,22 nM
"CC(C)Nc1c(-c2ccc(C(=O)N3CCC(N4CCOCC4)CC3)cc2)cnc2[nH]ccc12 [Compound 54, (4-(4-(isopropylamino)-1H-pyrrolo[2,3-b]pyridin-5-yl)phenyl)(4-morpholinopiperidin-1-yl)methanone]",10 to 100 nM,10 to 100 nM,,
"CNc1c(-c2nn(C)c3ccc(OC)cc23)cnc2[nH]cc(Cl)c12 [Compound 15, 3-(3-chloro-4-(methylamino)-1H-pyrrolo[2,3-b]pyridin-5-yl)-5-methoxy-1-methyl-1H-indazole]",,,397 nM,140 nM
"CC(C)Nc1c(-c2ccc(C(=O)N3CCOCC3)cc2)cnc2[nH]ccc12 [Compound 48, (4-(4-(isopropylamino)-1H-pyrrolo[2,3-b]pyridin-5-yl)phenyl)(morpholino)methanone]",10 to 100 nM,10 to 100 nM,,
"CCNc1c(-c2cnn([C@H]3CCN(C(C)=O)C[C@@H]3F)c2)cnc2[nH]cc(Cl)c12 [Compound 78, 1-((3S,4S)-4-(4-(3-chloro-4-(ethylamino)-1H-pyrrolo[2,3-b]pyridin-5-yl)-1H-pyrazol-1-yl)-3-fluoropiperidin-1-yl)ethan-1-one]",10 to 100 nM,10 to 100 nM,,
"CCc1cc(-c2cnc3[nH]cc(Cl)c3c2NC)nn1C [Compound 9, 3-chloro-5-(5-ethyl-1-methyl-1H-pyrazol-3-yl)-N-methyl-1H-pyrrolo[2,3-b]pyridin-4-amine]",,,83.1 nM,36.6 nM
"CNc1c(-c2cnn(C3CCOCC3)c2)cnc2[nH]cc(Cl)c12 [Compound 6, 3-chloro-N-methyl-5-(1-(tetrahydro-2H-pyran-4-yl)-1H-pyrazol-4-yl)-1H-pyrrolo[2,3-b]pyridin-4-amine]",,,15 nM,10 nM
"CCNc1c(-c2ccc(C(=O)N3CCC(N4CCOCC4)CC3)cc2)cnc2[nH]cc(Cl)c12 [Compound 97, (4-(3-chloro-4-(ethylamino)-1H-pyrrolo[2,3-b]pyridin-5-yl)phenyl)(4-morpholinopiperidin-1-yl)methanone]",10 to 100 nM,< 10 nM,,
"CNc1c(-c2cnn([C@H]3CCN(C4COC4)C[C@@H]3F)c2)cnc2[nH]cc(Cl)c12 [Compound 70, 3-chloro-5-(1-((3S,4S)-3-fluoro-1-(oxetan-3-yl)piperidin-4-yl)-1H-pyrazol-4-yl)-N-methyl-1H-pyrrolo[2,3-b]pyridin-4-amine]",10 to 100 nM,10 to 100 nM,,
"CNc1c(-c2cn(C3CCOCC3)nc2C2CC2)cnc2[nH]cc(Cl)c12 [Compound 13, 3-chloro-5-(3-cyclopropyl-1-(tetrahydro-2H-pyran-4-yl)-1H-pyrazol-4-yl)-N-methyl-1H-pyrrolo[2,3-b]pyridin-4-amine]",,,> 10000 nM,3600 nM
"O=C(c1ccc(-c2cnc3[nH]cc(Cl)c3c2NC2CC2)cc1)N1CCOCC1 [Compound 93, (4-(3-chloro-4-(cyclopropylamino)-1H-pyrrolo[2,3-b]pyridin-5-yl)phenyl)(morpholino)methanone]",10 to 100 nM,10 to 100 nM,,

# Second part, the molecule after the results:
"IC50 [1, 3]","IC50 [2, 4]","IC50 [1, 5]","IC50 [2, 6]",SMILES
,,61 nM,103 nM,"CNc1c(C(F)(F)F)cnc2[nH]cc(-c3cnn(C4CCN(C)CC4)c3)c12 [Compound 8, N-methyl-3-(1-(1-methylpiperidin-4-yl)-1H-pyrazol-4-yl)-5-(trifluoromethyl)-1H-pyrrolo[2,3-b]pyridin-4-amine]"
,,305 nM,95.2 nM,"CNc1c(-c2nn(C)c3ccc(C#N)cc23)cnc2[nH]cc(Cl)c12 [Compound 14, 3-(3-chloro-4-(methylamino)-1H-pyrrolo[2,3-b]pyridin-5-yl)-1-methyl-1H-indazole-5-carbonitrile]"
,,825 nM,891 nM,"CNc1c(-c2cnn(C3CCN(C)CC3)c2)cnc2[nH]ccc12 [Compound 2, N-methyl-5-(1-(1-methylpiperidin-4-yl)-1H-pyrazol-4-yl)-1H-pyrrolo[2,3-b]pyridin-4-amine]"
,,164 nM,264 nM,"CNc1c(-c2cnn(C3CCOCC3)c2)cnc2[nH]ccc12 [Compound 3, N-methyl-5-(1-(tetrahydro-2H-pyran-4-yl)-1H-pyrazol-4-yl)-1H-pyrrolo[2,3-b]pyridin-4-amine]"
> 100 nM,10 to 100 nM,,,"COCCNc1c(-c2cnn([C@H]3CCN(C(C)=O)C[C@@H]3F)c2)cnc2[nH]cc(Cl)c12 [Compound 81, 1-((3S,4S)-4-(4-(3-chloro-4-((2-methoxyethyl)amino)-1H-pyrrolo[2,3-b]pyridin-5-yl)-1H-pyrazol-1-yl)-3-fluoropiperidin-1-yl)ethan-1-one]"
,,514 nM,136 nM,"CC(C)Nc1c(-c2ccn(C)n2)cnc2[nH]cc(Cl)c12 [Compound 12, 3-chloro-N-isopropyl-5-(1-methyl-1H-pyrazol-3-yl)-1H-pyrrolo[2,3-b]pyridin-4-amine]"
,,26 nM,38 nM,"CNc1c(C(F)(F)F)cnc2[nH]cc(-c3cnn(C(C)(C)C#N)c3)c12 [Compound 7, 2-methyl-2-(4-(4-(methylamino)-5-(trifluoromethyl)-1H-pyrrolo[2,3-b]pyridin-3-yl)-1H-pyrazol-1-yl)propanenitrile]"
> 100 nM,10 to 100 nM,,,"O=C(c1ccc(-c2cnc3[nH]cc(Cl)c3c2NC2CC2)cc1)N1CCC(N2CCOCC2)CC1 [Compound 99, (4-(3-chloro-4-(cyclopropylamino)-1H-pyrrolo[2,3-b]pyridin-5-yl)phenyl)(4-morpholinopiperidin-1-yl)methanone]"
,,326 nM,544 nM,"CNc1c(-c2cnn(C(C)(C)C#N)c2)cnc2[nH]ccc12 [Compound 1, 2-methyl-2-(4-(4-(methylamino)-1H-pyrrolo[2,3-b]pyridin-5-yl)-1H-pyrazol-1-yl)propanenitrile]"
,,14 nM,15 nM,"CNc1c(-c2cnn(C(C)(C)C#N)c2)cnc2[nH]cc(Cl)c12 [Compound 4, 2-(4-(3-chloro-4-(methylamino)-1H-pyrrolo[2,3-b]pyridin-5-yl)-1H-pyrazol-1-yl)-2-methylpropanenitrile]"
